# Experimental data published in US20240148821A1, “PHARMACEUTICAL USE OF CYCLIC PEPTIDE COMPOUND” (CHUGAI SEIYAKU KABUSHIKI KAISHA, priority 2021, published 2024).
# Numbered stars: 1 amine (or outer) side, 2 acyl side, 3 side chain; on linkers, the order of the positions; unused ones are H or OH. Bridge positions count the residues as written; N and C are the ends. Square brackets hold non-standard residues; d marks the D form. Peptide text beside a SMILES is read from it. * marks the point of attachment. hPhe(3,5-F2-4-CF3) = N[C@@H](CCc1cc(F)c(C(F)(F)F)c(F)c1)C(=O)O; hPhe(3-Cl-4-CF3) = N[C@@H](CCc1ccc(C(F)(F)F)c(Cl)c1)C(=O)O; X27 = CN([C@@H](Cc1ccc(C(F)(F)F)nc1)C(=O)[*:2])[*:1]; NMePhe(4-CF3) = CN[C@@H](Cc1ccc(C(F)(F)F)cc1)C(=O)O; NMeAbu(4,4,4-F3) = CN[C@@H](CC(F)(F)F)C(=O)O; NMePhe(4-Cl) = CN[C@@H](Cc1ccc(Cl)cc1)C(=O)O; NMePhe(4-Me) = CN[C@@H](Cc1ccc(C)cc1)C(=O)O; NMePhe(2-Cl) = CN[C@@H](Cc1ccccc1Cl)C(=O)O; X40 = O=C([C@H](Cc1cc(I)ccc1F)N[*:1])[*:2]; NMedβ3hAla = C[C@H](CC(=O)[*:2])N(C)[*:1]; Phe(3-I) = N[C@@H](Cc1cccc(I)c1)C(=O)O; Pro(4,4-F2) = O=C(O)[C@@H]1CC(F)(F)CN1; NMeY = CN[C@@H](Cc1ccc(O)cc1)C(=O)O; NMeCha = CN[C@@H](CC1CCCCC1)C(=O)O; NMeChg = CN[C@H](C(=O)O)C1CCCCC1; NMeD = CN[C@@H](CC(=O)O)C(=O)O; NMeL = CN[C@@H](CC(C)C)C(=O)O; NMeNva = CCC[C@H](NC)C(=O)O; NMeV = CN[C@H](C(=O)O)C(C)C; d(β3hA) = C[C@@H](N)CC(=O)O; N(iPr)Gly = CC(C)NCC(=O)O; Morpholide = C1CN(*)CCO1; NMeA = CN[C@@H](C)C(=O)O; NMeAib = CNC(C)(C)C(=O)O; Nle = CCCC[C@H](N)C(=O)O; Piperidide = C1CCN(*)CC1; Pra = C#CC[C@H](N)C(=O)O; Pyrrolidide = C1CCN(*)C1; Ac5c = NC1(C(=O)O)CCCC1; Aze = O=C(O)[C@@H]1CCN1; Thp = NC1(C(=O)O)CCOCC1; Sar = CNCC(=O)O
# System: Human pancreatic cancer cell line AsPC-1 (G12D mutation Kras)
# Experiment: AsPC-1 cell growth inhibition (AsPC-1 CGI)
# Assay type: cell-based
# Conditions: read-out: AsPC-1 cell growth inhibition, 50% growth inhibitory concentration (IC50 value); 96 hours, CellTiter-Glo, values classified in ranges
# Description: Test compounds were serially dilated with dimethyl sulfoxide, and 200 nL was then dispensed to a U-bottom 96-well plate using Labcyte Echo. […] The cell suspension was dispensed to a. plate containing a test compound at 100 μL per well and incubated at 37° C. in a 5% carbon dioxide gas incubator. 96 hours later, 80 μL of CellTiter-Glo (Promega) was added to each well and fluorescence was measured.
row,SMILES,IC50 [nM]
1,CC[C@H](C)[C@@H]1NC(=O)[C@H](CC(C)C)N(C)C(=O)C[C@@H](C)NC(=O)[C@H](C)N(C)C(=O)C2(CCCC2)NC(=O)[C@@H]2CCCN2C(=O)[C@H](CCc2ccc(C(F)(F)F)c(Cl)c2)NC(=O)CN(C)C(=O)[C@H](Cc2ccc(C)cc2)N(C)C(=O)[C@@H]2CCN2C(=O)[C@H](C)N(C)C1=O [Compound 1239] (cyclo([Ac5c][NMeA][d(β3hA)][NMeL]I[NMeA][Aze][NMePhe(4-Me)][Sar][hPhe(3-Cl-4-CF3)]P)),> 500
2,C#CC[C@@H]1NC(=O)[C@H](Cc2cccc(I)c2)NC(=O)CN(C)C(=O)[C@H](Cc2ccc(OC)cc2)N(C)C(=O)[C@@H]2CCN2C(=O)CN(C)C(=O)[C@H]([C@@H](C)CC)NC(=O)[C@H](CC(C)C)N(C)C(=O)C[C@@H](C(=O)N2CCCCC2)N(C)C(=O)[C@H](CC(C)C)NC(=O)C(C)(C)N(C)C1=O [Compound 1246] ([NMeL]I[Sar][Aze][NMeY](Me)[Sar][Phe(3-I)][Pra][NMeAib]L[NMeD]-Piperidide; lactam N-11),> 500
3,CC[C@H](C)[C@@H]1NC(=O)[C@H](CC(C)C)N(C)C(=O)C[C@@H](C)N(C)C(=O)[C@H](CC(C)C)N(C)C(=O)C2(CCOCC2)NC(=O)[C@@H]2CCCN2C(=O)[C@H](CCc2ccc(C(F)(F)F)c(Cl)c2)NC(=O)CN(C)C(=O)[C@H](CC2CCCCC2)N(C)C(=O)CN(C)C(=O)CN(C)C1=O [Compound 742] (cyclo(I[Sar][Sar][NMeCha][Sar][hPhe(3-Cl-4-CF3)]P[Thp][NMeL][NMedβ3hAla][NMeL])),> 500
4,CC[C@H](C)[C@@H]1NC(=O)[C@H](CC(C)C)N(C)C(=O)C[C@@H](C(=O)N2CCCCC2)N(C)C(=O)[C@H](C2CCCCC2)N(C)C(=O)C2(CCCC2)NC(=O)[C@H](Cc2ccc(C(F)(F)F)nc2)N(C)C(=O)[C@H](CCc2ccc(C(F)(F)F)c(Cl)c2)NC(=O)CN(C)C(=O)[C@H](CC2CCCCC2)N(C)C(=O)[C@@H]2CCN2C(=O)CN(C)C1=O [Compound 6] ([NMeL]I[Sar][Aze][NMeCha][Sar][hPhe(3-Cl-4-CF3)][X27][Ac5c][NMeChg][NMeD]-Piperidide; lactam N-11),> 500
5,"CC[C@H](C)[C@@H]1NC(=O)[C@H](CC(C)C)N(C)C(=O)C[C@@H](C(=O)N2CCOCC2)N(C)C(=O)[C@H](C2CCCCC2)N(C)C(=O)C2(CCCC2)NC(=O)[C@@H]2CC(F)(F)CN2C(=O)[C@H](CCc2cc(F)c(C(F)(F)F)c(F)c2)NC(=O)CN(C)C(=O)[C@H](CC2CCCCC2)N(C)C(=O)CN(C)C(=O)CN(C)C1=O [Compound 1337] ([NMeL]I[Sar][Sar][NMeCha][Sar][hPhe(3,5-F2-4-CF3)][Pro(4,4-F2)][Ac5c][NMeChg][NMeD]-Morpholide; lactam N-11)",≤ 20
6,CC[C@H](C)[C@@H]1NC(=O)[C@H](CC(C)C)N(C)C(=O)C[C@@H](C)NC(=O)[C@H](C(C)C)N(C)C(=O)C2(CCCC2)NC(=O)[C@@H]2CCCN2C(=O)[C@H](CCc2ccc(C(F)(F)F)c(Cl)c2)NC(=O)CN(C)C(=O)[C@H](Cc2ccccc2Cl)N(C)C(=O)CN(C)C(=O)CN(C)C1=O [Compound 1591] (cyclo([Ac5c][NMeV][d(β3hA)][NMeL]I[Sar][Sar][NMePhe(2-Cl)][Sar][hPhe(3-Cl-4-CF3)]P)),> 500
7,CCCC[C@@H]1NC(=O)[C@H](Cc2cc(I)ccc2F)NC(=O)CN(C)C(=O)[C@H](Cc2ccc(Cl)cc2)N(C)C(=O)CN(C)C(=O)CN(C)C(=O)[C@H]([C@@H](C)CC)NC(=O)[C@H](CC(C)C)N(C)C(=O)C[C@@H](C(=O)N2CCCCC2)N(C)C(=O)[C@H](CC(C)C)NC(=O)C(C)(C)N(C)C1=O [Compound 1286] ([NMeL]I[Sar][Sar][NMePhe(4-Cl)][Sar][X40][Nle][NMeAib]L[NMeD]-Piperidide; lactam N-11),> 500
8,"CC[C@H](C)[C@@H]1NC(=O)[C@H](CC(F)(F)F)N(C)C(=O)C[C@@H](C(=O)N2CCOCC2)N(C)C(=O)[C@H](C2CCCCC2)N(C)C(=O)C2(CCCC2)NC(=O)[C@@H]2CCCN2C(=O)[C@H](CCc2ccc(C(F)(F)F)c(Cl)c2)NC(=O)CN(C)C(=O)[C@H](Cc2ccc(C(F)(F)F)cc2)N(C)C(=O)CN(C)C(=O)CN(C)C1=O [Compound 981] ([NMeAbu(4,4,4-F3)]I[Sar][Sar][NMePhe(4-CF3)][Sar][hPhe(3-Cl-4-CF3)]P[Ac5c][NMeChg][NMeD]-Morpholide; lactam N-11)",≤ 20
9,CC[C@H](C)[C@@H]1NC(=O)[C@H](CC(C)C)N(C)C(=O)C[C@@H](C)NC(=O)[C@H](C(C)C)N(C)C(=O)C2(CCCC2)NC(=O)[C@@H]2CCCN2C(=O)[C@H](CCc2ccc(C(F)(F)F)c(Cl)c2)NC(=O)CN(C)C(=O)[C@H](CC2CCCCC2)N(C)C(=O)CN(C)C(=O)CN(C(C)C)C1=O [Compound 305] (cyclo([Ac5c][NMeV][d(β3hA)][NMeL]I[N(iPr)Gly][Sar][NMeCha][Sar][hPhe(3-Cl-4-CF3)]P)),> 500
10,"CCC[C@H]1C(=O)N[C@@H]([C@@H](C)CC)C(=O)N(C)CC(=O)N(C)CC(=O)N(C)[C@@H](CC2CCCCC2)C(=O)N(C)CC(=O)N[C@@H](CCc2ccc(C(F)(F)F)c(Cl)c2)C(=O)N2CC(F)(F)C[C@H]2C(=O)NC2(CCCC2)C(=O)N(C)[C@@H](C2CCCCC2)C(=O)N(C)[C@H](C(=O)N2CCCC2)CC(=O)N1C [Compound 1232] ([NMeNva]I[Sar][Sar][NMeCha][Sar][hPhe(3-Cl-4-CF3)][Pro(4,4-F2)][Ac5c][NMeChg][NMeD]-Pyrrolidide; lactam N-11)",≤ 20
